From US9434697B2, “Pyrimidine FGFR4 inhibitors” (priority 2013, dated 2016)
Like-named read-outs stand apart in the source and are kept apart here.

What was measured:
HEP3B tumor xenografts = type: in vivo
Recombinant FGFR4 = Recombinant FGFR4 (Homo sapiens (Human), UniProt P22455); experiment: Kinase HotSpot assay, IC50 profiling of kinase activity inhibition (FGFR4); type: biochemical; settings: Table 1; 10 μM ATP
Recombinant FGFR1 = Recombinant FGFR1 (Homo sapiens (Human), UniProt P11362); experiment: Kinase HotSpot assay, IC50 profiling of kinase activity inhibition (FGFR1); type: biochemical; settings: Table 1; 10 μM ATP
Sequence of Recombinant FGFR1 (P11362 22-822): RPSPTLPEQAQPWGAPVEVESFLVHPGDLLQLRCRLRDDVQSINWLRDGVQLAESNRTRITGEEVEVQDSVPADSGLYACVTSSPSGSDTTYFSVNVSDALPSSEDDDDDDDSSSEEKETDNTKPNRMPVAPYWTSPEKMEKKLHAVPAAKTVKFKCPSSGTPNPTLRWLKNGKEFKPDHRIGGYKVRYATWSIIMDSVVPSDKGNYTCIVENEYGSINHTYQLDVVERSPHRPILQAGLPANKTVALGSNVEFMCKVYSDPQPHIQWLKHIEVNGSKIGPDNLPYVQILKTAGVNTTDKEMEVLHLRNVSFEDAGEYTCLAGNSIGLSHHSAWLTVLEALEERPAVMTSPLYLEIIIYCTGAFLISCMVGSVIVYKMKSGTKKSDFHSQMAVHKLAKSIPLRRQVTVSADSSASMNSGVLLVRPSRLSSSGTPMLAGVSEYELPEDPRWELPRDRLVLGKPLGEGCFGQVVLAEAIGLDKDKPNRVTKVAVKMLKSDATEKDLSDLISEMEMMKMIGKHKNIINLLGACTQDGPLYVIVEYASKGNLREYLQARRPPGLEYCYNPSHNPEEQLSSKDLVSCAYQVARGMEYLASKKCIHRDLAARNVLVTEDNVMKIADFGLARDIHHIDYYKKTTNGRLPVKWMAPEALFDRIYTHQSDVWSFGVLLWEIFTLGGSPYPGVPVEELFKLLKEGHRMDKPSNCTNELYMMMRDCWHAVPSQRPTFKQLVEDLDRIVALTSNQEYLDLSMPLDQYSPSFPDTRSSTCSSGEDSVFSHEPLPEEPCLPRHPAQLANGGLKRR

Sequence of Recombinant FGFR4 (P22455 22-802): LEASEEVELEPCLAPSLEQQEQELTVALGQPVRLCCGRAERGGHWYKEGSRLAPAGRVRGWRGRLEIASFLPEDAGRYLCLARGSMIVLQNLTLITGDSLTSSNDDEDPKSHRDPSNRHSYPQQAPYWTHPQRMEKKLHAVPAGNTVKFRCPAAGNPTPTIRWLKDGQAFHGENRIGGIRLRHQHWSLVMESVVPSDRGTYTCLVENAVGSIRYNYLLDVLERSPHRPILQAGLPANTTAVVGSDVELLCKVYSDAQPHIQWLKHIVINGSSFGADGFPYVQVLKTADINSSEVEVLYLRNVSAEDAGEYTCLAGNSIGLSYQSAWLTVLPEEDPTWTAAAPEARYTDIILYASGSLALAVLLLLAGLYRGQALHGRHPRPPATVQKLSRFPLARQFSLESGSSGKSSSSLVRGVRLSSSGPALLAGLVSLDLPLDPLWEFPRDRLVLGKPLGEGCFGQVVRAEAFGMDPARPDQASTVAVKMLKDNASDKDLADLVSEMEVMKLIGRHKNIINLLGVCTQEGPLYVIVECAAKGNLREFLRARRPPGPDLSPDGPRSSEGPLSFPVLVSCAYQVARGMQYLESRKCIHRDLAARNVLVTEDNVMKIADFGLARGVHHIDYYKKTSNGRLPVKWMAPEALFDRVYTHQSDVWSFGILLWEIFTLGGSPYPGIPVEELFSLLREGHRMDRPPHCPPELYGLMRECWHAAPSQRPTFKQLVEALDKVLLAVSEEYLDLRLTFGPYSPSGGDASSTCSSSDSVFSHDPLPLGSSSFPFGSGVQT

For `CCN1CCN(c2ccc(Nc3cc(N(C)C(=O)Nc4c(Cl)c(OC)cc(OC)c4Cl)ncn3)cc2)CC1` [BGJ398], the “tolerability (health of animals)” value (HEP3B tumor xenografts; 30 mg/kg orally twice daily) was “did not exhibit poor health”, the “comparative in vivo efficacy (tumor volume)” value (HEP3B tumor xenografts; 60 mg/kg orally twice daily) was “efficacy comparable to compound 108” and the “tolerability (health of animals)” value (HEP3B tumor xenografts; 60 mg/kg orally twice daily) was “terminated on Day 11 due to poor health of animals”.

Work on `C=CC(=O)Nc1ccccc1Nc1cc(N(C)C(=O)Nc2cc(OC)cc(OC)c2)ncn1` [Example 102] yielded an IC50 (Recombinant FGFR4) of 853 nM and an IC50 (Recombinant FGFR1) of over 10000 nM.

With `C=CC(=O)Nc1cc(N2CCN(CC)CC2)ccc1Nc1cc(N(C)C(=O)Nc2c(Cl)c(OC)cc(OC)c2Cl)ncn1` [Example 108, N-(2-(6-(3-(2,6-Dichloro-3,5-dimethoxyphenyl)-1-methylureido)pyrimidin-4-ylamino)-5-(4-ethylpiperazin-1-yl)phenyl)acrylamide] the “comparative in vivo efficacy (tumor volume)” value (HEP3B tumor xenografts; 25, 37.5 or 50 mg/kg i.p. twice daily, 18 days) was “more efficacious than BGJ398 at tolerable dosage levels”.
